From ChEMBL document CHEMBL5579892, “Rational Design, Synthesis, and Structure-Activity Relationship of a Novel Isoquinolinone-Based Series of HBV Capsid Assembly Modulators Leading to the Identification of Clinical Candidate AB-836” (J Med Chem, 2024)
In brackets after ≈: the same amount, converted by molar mass. Values belong to the molecule of their own block, whether it stands above or below them. Activity calls are given as the source filed them. The calls are words filed in the database; no cut-off is given here.

Assays:
Cytochrome P450 1A2 = biological target: T1, Cytochrome P450 1A2 (Homo sapiens, UniProt P05177); assay: Inhibition of CYP1A2 (unknown origin); assay type: ADME
T1 sequence (P05177 whole entry): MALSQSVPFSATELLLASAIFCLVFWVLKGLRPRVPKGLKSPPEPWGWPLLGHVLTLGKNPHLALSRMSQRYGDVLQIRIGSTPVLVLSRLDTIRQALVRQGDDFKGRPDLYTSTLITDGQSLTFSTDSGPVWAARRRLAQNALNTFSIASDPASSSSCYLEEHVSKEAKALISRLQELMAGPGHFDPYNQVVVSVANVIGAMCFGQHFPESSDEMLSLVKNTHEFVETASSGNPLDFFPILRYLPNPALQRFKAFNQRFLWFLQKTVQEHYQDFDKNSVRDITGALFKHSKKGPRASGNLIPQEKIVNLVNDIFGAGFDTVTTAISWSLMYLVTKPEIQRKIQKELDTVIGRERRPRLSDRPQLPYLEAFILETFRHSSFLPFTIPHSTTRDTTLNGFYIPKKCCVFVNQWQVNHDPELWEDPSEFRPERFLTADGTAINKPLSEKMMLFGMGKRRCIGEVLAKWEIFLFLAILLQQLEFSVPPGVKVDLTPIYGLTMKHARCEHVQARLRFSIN

[1] = Microsomal stability in mouse liver microsomes assessed as intrinsic clearance; assay type: ADME, Microsome; conditions: read-out: CLH
Cytochrome P450 3A4 = Cytochrome P450 3A4 (Homo sapiens, UniProt P08684); assay: Inhibition of CYP3A4 (unknown origin); assay type: ADME
Cytochrome P450 3A4, sequence (P08684 whole entry): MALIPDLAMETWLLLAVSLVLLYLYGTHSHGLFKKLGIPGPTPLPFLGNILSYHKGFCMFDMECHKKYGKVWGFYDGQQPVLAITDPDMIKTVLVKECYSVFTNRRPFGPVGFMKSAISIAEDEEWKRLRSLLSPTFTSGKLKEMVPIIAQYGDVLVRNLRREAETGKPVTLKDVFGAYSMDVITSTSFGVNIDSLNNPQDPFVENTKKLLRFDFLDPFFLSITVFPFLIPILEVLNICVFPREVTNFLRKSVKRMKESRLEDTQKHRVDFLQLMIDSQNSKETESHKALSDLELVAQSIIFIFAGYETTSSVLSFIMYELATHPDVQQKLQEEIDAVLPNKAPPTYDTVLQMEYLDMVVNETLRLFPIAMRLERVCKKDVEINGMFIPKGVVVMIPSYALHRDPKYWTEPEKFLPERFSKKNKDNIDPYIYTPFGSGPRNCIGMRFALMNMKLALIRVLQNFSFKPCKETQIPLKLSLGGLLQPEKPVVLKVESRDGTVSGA

[2] = Kinetic solubility in PBS at pH 7.4; assay type: physicochemical; conditions: read-out: Kinetic_solubility
[3] = AUC (0 to infinity) in CD-1 mouse at 2 mg/kg, iv; assay type: ADME, organism-based; conditions: in vivo
Hepatitis B virus [4] = assay: Antiviral activity against HBV infected in NOD.CB17-Prkdcscid/J mouse assessed as log10 reduction in viral DNA at 30 mg/kg, po administered twice daily for 7 days by qPCR analysis; assay type: functional; conditions: time 7 day
[5] = AUC (0 to infinity) in CD-1 mouse at 10 mg/kg, po; assay type: ADME, organism-based; conditions: in vivo
Cytochrome P450 2B6 = biological target: T2, Cytochrome P450 2B6 (Homo sapiens, UniProt P20813); assay: Inhibition of CYP2B6 (unknown origin); assay type: ADME
T2 sequence (P20813 whole entry): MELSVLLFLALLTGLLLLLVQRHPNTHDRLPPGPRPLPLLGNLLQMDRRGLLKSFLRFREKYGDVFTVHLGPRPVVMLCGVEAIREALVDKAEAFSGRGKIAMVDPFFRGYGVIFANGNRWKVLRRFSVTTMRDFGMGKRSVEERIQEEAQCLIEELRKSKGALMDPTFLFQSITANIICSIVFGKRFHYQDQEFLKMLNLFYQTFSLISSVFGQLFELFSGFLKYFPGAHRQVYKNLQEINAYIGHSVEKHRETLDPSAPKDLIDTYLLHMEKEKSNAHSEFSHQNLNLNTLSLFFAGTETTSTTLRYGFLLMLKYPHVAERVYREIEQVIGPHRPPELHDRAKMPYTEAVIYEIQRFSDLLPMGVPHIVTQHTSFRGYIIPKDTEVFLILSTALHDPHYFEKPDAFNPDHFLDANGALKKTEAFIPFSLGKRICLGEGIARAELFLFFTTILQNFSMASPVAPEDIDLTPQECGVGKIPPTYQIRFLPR

Hepatitis B virus [6] = assay: Antiviral activity against HBV infected in NOD.CB17-Prkdcscid/J mouse assessed as log10 reduction in viral DNA at 30 mg/kg, po administered once daily for 7 days by qPCR analysis; assay type: functional; conditions: time 7 day
[7] = Oral bioavailability in CD-1 mouse at 10 mg/kg; assay type: ADME, organism-based; conditions: in vivo
Cytochrome P450 2C19 = Cytochrome P450 2C19 (Homo sapiens, UniProt P33261); assay: Inhibition of CYP2C19 (unknown origin); assay type: ADME
Cytochrome P450 2C19, sequence (P33261 whole entry): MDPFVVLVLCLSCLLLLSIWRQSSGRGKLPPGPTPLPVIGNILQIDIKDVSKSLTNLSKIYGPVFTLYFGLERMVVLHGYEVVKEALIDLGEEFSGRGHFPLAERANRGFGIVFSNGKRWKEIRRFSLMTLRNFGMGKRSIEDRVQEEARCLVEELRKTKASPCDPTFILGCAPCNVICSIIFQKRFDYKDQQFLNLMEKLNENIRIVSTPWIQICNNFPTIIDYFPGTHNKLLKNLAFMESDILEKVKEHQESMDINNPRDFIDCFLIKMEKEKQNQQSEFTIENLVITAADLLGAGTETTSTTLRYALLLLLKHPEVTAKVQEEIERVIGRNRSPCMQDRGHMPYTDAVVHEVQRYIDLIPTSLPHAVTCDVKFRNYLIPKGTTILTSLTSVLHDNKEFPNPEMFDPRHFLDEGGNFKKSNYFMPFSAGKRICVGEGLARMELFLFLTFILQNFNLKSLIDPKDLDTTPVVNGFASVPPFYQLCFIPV

Cytochrome P450 2D6 = Cytochrome P450 2D6 (Homo sapiens, UniProt P10635); assay: Inhibition of CYP2D6 (unknown origin); assay type: ADME
Cytochrome P450 2D6, sequence (P10635 whole entry): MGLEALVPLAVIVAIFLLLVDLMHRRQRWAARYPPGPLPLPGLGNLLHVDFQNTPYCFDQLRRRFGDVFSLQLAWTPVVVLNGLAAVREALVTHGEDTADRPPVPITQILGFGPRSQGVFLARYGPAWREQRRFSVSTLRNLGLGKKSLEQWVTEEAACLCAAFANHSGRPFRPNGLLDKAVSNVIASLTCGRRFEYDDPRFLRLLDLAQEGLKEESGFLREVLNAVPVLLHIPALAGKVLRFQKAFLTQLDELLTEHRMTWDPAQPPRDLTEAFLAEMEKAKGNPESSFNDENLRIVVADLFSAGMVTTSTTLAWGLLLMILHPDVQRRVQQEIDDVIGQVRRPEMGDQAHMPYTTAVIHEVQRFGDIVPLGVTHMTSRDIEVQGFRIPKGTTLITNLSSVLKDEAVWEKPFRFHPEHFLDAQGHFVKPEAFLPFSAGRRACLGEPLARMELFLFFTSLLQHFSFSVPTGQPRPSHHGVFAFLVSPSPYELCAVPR

Hepatitis B virus [8] = assay: Antiviral activity against HBV infected in NOD.CB17-Prkdcscid/J mouse assessed as log10 reduction in viral DNA at 10 mg/kg, po administered twice daily for 7 days by qPCR analysis; assay type: functional; conditions: time 7 day
Hepatitis B virus [9] = assay: Antiviral activity against HBV infected in HepDE19 cells; assay type: functional, organism-based
[10] = Half-life in CD-1 mouse at 10 mg/kg, po; assay type: ADME, organism-based; conditions: in vivo
Hepatitis B virus [11] = assay: Antiviral activity against HBV infected in po dosed NOD.CB17-Prkdcscid/J mouse assessed as reduction in viral DNA administered once daily or twice daily for 7 days by qPCR analysis; assay type: functional, organism-based; conditions: dose 3-30 mg/kg, time 7.0 day
[12] = Cytotoxicity against human HepDE19 cells by CellTiter-Glo analysis; assay type: toxicity, cell-based
[13] = Microsomal stability in human liver microsomes assessed as intrinsic clearance; assay type: ADME, Microsome; conditions: read-out: CLH
Cytochrome P450 2C9 = Cytochrome P450 2C9 (Homo sapiens, UniProt P11712); assay: Inhibition of CYP2C9 (unknown origin); assay type: ADME
Cytochrome P450 2C9, sequence (P11712 whole entry): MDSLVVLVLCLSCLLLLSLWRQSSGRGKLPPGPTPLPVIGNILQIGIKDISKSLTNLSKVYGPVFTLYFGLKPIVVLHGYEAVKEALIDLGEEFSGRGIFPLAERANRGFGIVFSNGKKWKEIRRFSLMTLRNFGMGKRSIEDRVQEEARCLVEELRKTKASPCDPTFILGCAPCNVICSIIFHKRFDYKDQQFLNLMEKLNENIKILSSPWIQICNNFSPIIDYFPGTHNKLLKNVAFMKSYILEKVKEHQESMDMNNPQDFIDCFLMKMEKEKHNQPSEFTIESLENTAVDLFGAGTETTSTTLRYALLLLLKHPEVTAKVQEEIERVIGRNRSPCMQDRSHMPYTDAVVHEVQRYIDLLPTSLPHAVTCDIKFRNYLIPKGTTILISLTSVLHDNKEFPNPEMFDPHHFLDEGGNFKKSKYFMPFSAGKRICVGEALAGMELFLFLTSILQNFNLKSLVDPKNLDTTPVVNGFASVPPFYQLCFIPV

[14] = Half-life in CD-1 mouse at 2 mg/kg, iv; assay type: ADME, organism-based; conditions: in vivo
Hepatitis B virus [15] = assay: Antiviral activity against HBV infected in HepG2-hNTCP-C4 cells assessed as inhibition of cccDNA formation preincubated with compound followed by viral infection; assay type: functional, organism-based
[16] = Drug concentration in CD-1 mouse liver at 10 mg/kg, po measured after 24 hrs; assay type: ADME, organism-based; conditions: read-out: Ct
[17] = Microsomal stability in rat liver microsomes assessed as intrinsic clearance; assay type: ADME, Microsome; conditions: read-out: CLH
Hepatitis B virus [18] = assay: Antiviral activity against HBV infected in HepG2-hNTCP-C4 cells assessed as inhibition of HBsAg formation preincubated with virus followed by compound addition; assay type: functional, organism-based
[19] = Clearance in CD-1 mouse at 2 mg/kg, iv; assay type: ADME, organism-based; conditions: in vivo
[20] = AUC (0 to infinity) in monkey at 10 mg/kg, po; assay type: ADME, organism-based, Macaca mulatta; conditions: rhesus monkey, in vivo
[21] = AUC (0 to infinity) in rat at 10 mg/kg, po; assay type: ADME, organism-based; conditions: in vivo
[22] = Drug concentration in rat liver at 10 mg/kg, po measured after 24 hrs; assay type: ADME, organism-based; conditions: read-out: Ct
[23] = Clearance in monkey at 2 mg/kg, iv; assay type: ADME, organism-based, Macaca mulatta; conditions: rhesus monkey, in vivo
Hepatitis B virus [24] = assay: Antiviral activity against HBV infected in NOD.CB17-Prkdcscid/J mouse assessed as log10 reduction in viral DNA at 3 mg/kg, po administered once daily for 7 days by qPCR analysis; assay type: functional; conditions: time 7 day
[25] = Drug concentration in CD-1 mouse liver assessed as fold increase in EC90 concentration required for antiviral activity against HBV infected in HepDE19 cells at 10 mg/kg, po measured after 24 hrs; assay type: ADME, organism-based; conditions: in vivo
[26] = Microsomal stability in monkey liver microsomes assessed as intrinsic clearance; assay type: ADME, Macaca mulatta, Microsome; conditions: rhesus monkey, read-out: CLH
Hepatitis B virus [27] = assay: Antiviral activity against HBV infected in HepDE19 cells assessed as effect on capsid particle formation at 1 uM; assay type: functional, organism-based
Hepatitis B virus [28] = assay: Antiviral activity against HBV infected in NOD.CB17-Prkdcscid/J mouse assessed as log10 reduction in viral DNA at 10 mg/kg, po administered once daily for 7 days by qPCR analysis; assay type: functional; conditions: time 7 day
[29] = Clearance in rat at 2 mg/kg, iv; assay type: ADME, organism-based; conditions: in vivo
[30] = Drug concentration in rat liver assessed as fold increase in EC90 concentration required for antiviral activity against HBV infected in HepDE19 cells at 10 mg/kg, po measured after 24 hrs; assay type: ADME, organism-based; conditions: in vivo
[31] = Half-life in monkey at 10 mg/kg, po; assay type: ADME, organism-based, Macaca mulatta; conditions: rhesus monkey, in vivo
Hepatitis B virus [32] = assay: Antiviral activity against HBV infected in HepG2-hNTCP-C4 cells assessed as inhibition of HBsAg formation preincubated with compound followed by viral infection; assay type: functional, organism-based
Hepatitis B virus [33] = assay: Antiviral activity against HBV infected in HepG2-hNTCP-C4 cells assessed as inhibition of cccDNA formation preincubated with virus followed by compound addition; assay type: functional, organism-based
[34] = Half-life in rat at 10 mg/kg, po; assay type: ADME, organism-based; conditions: in vivo
Hepatitis B virus [35] = assay: Antiviral activity against HBV infected in HepDE19 cells assessed as effect on pgRNA core protein at 1 uM; assay type: functional, organism-based

- IC50 (Cytochrome P450 1A2): > 20 µM
- microsomal CLint [1]: 29 µL/min/mg
- IC50 (Cytochrome P450 3A4): > 20 µM
- solubility kinetic [2]: 135 µM (≈ 50.5 µg/mL)
- AUC(0-inf) [3]: 3520 ng·h/mL
- AUC(0-inf) [5]: 13800 ng·h/mL
- IC50 (Cytochrome P450 2B6): > 20 µM
- bioavailability [7]: 80%
- IC50 (Cytochrome P450 2C19): > 20 µM
- IC50 (Cytochrome P450 2D6): > 20 µM
- EC50 (Hepatitis B virus [9]): 0.045 µM
- half-life [10]: 2.2 h
- microsomal CLint [13]: 44 µL/min/mg
- IC50 (Cytochrome P450 2C9): > 20 µM
- half-life [14]: 2.4 h
SMILES: CC(c1c[nH]c(=O)c2ccccc12)N(C)C(=O)Nc1ccc(F)c(Cl)c1 (stereo not drawn)
- log(activity) (Hepatitis B virus [4]): 1.4
- log(activity) (Hepatitis B virus [6]): 0.3
- log(activity) (Hepatitis B virus [8]): 0.6
- Activity (Hepatitis B virus [11]): Dose-Dependent Effect
- CC50 [12]: > 25 µM

SMILES: C[C@H](c1c[nH]c(=O)c2cc(F)c(F)cc12)N(C)C(=O)Nc1ccc(F)c(C#N)c1
- microsomal CLint [1]: 10 µL/min/mg
- EC50 (Hepatitis B virus [15]): 0.175 µM
- solubility kinetic [2]: 120 µM (≈ 48 µg/mL)
- concentration at 24 h [16]: 395 ng/mL
- microsomal CLint [17]: 46 µL/min/mg
- Activity (Hepatitis B virus [18]): inactive
- clearance [19]: 13 mL/min/kg
- AUC(0-inf) [5]: 13000 ng·h/mL
- AUC(0-inf) [20]: 9270 ng·h/mL
- AUC(0-inf) [21]: 5740 ng·h/mL
- concentration at 24 h [22]: 334 ng/mL
- clearance [23]: 9 mL/min/kg
- log(activity) (Hepatitis B virus [24]): 1.4
- fold change (FC) [25]: 25
- microsomal CLint [26]: 34 µL/min/mg
- Activity (Hepatitis B virus [27]): inactive
- EC50 (Hepatitis B virus [9]): 0.01 µM
- log(activity) (Hepatitis B virus [28]): 2.5
- clearance [29]: 11 mL/min/kg
- fold change (FC) [30]: 20
- half-life [31]: 14 h
- EC50 (Hepatitis B virus [32]): 0.197 µM
- Activity (Hepatitis B virus [33]): inactive
- half-life [34]: 4.4 h
- half-life [10]: 3.1 h
- CC50 [12]: > 25 µM
- Activity (Hepatitis B virus [35]): inactive
- microsomal CLint [13]: 31 µL/min/mg
